Assay [1] concerns Hepatitis C virus. Description: Antiviral activity against wild type HCV genotype 1b assessed as replication level. Type of assay: functional, Hepacivirus hominis. The note with it: for EC50: Hepatitis C virus, genotype 1b.
In assay [2] the test system is Hepatitis C virus. Description: Antiviral activity against HCV genotype 1b expressing NS5A L31F mutant assessed as replication level.
Assay [3] deals with Hepatitis C virus. Description: Antiviral activity against HCV genotype 1b expressing NS5A L31M/Y93H mutant assessed as replication level. Type of assay: functional, Hepacivirus hominis.
Assay [4] deals with Hepatitis C virus. Description: Antiviral activity against HCV genotype 1b expressing NS5A L31V mutant assessed as replication level. Type of assay: functional, Hepacivirus hominis.
For assay [5], the system named is Hepatitis C virus. Description: Antiviral activity against HCV genotype 1b expressing NS5A L31V/Y93H mutant assessed as replication level. Type of assay: functional, Hepacivirus hominis.
The subject of assay [6] is Hepatitis C virus. Description: Antiviral activity against HCV genotype 1b expressing NS5A Y93H mutant assessed as replication level. Type of assay: functional, Hepacivirus hominis. The note with it: for EC50: Hepatitis C virus, genotype 1b.
Assay [7] concerns Hepatitis C virus. In words: Antiviral activity against HCV genotype 1b expressing NS5A L31M mutant assessed as replication level. In kind it is functional, Hepacivirus hominis.

The term EC50 denotes the concentration giving half of the maximal effect. Regarding `COC(=O)N[C@H](C(=O)N1CCC[C@H]1c1nc(Br)c(-c2ccc(Oc3ccc(-c4[nH]c([C@@H]5CCCN5C(=O)[C@@H](NC(=O)OC)C(C)C)nc4Br)cc3)cc2)[nH]1)C(C)C`, the EC50 in the assay with Hepatitis C virus [1] worked out at 0.05 nM.
As for `COC(=O)N[C@H](C(=O)N1CCC[C@H]1c1nc(Br)c(-c2ccc(N=[N+]=[N-])cc2)[nH]1)C(C)C`, the EC50 in the assay with Hepatitis C virus [2] stood at 0.7 nM.
For `COC(=O)N[C@H](C(=O)N1CCC[C@H]1c1ncc(-c2ccc(-c3ccc(-c4cnc([C@@H]5CCCN5C(=O)[C@@H](NC(=O)OC)C(C)C)[nH]4)cc3)cc2)[nH]1)C(C)C` [DACLATASVIR], the Activity with Hepatitis C virus [3] was found to be 70%; in the assay on Hepatitis C virus [1], 100%; in the assay on Hepatitis C virus [4], 158%; in the assay with Hepatitis C virus [5] it was 50%; in the assay with Hepatitis C virus [6], 27%; in the assay on Hepatitis C virus [7] it was 99%. Moreover, the EC50 with Hepatitis C virus [3] (Hepatitis C virus, genotype 1b) was 18.3 nM; in the assay with Hepatitis C virus [1] it was 0.0026 nM; in the assay on Hepatitis C virus [4] (Hepatitis C virus, genotype 1b), 0.0717 nM; in the assay on Hepatitis C virus [5] (Hepatitis C virus, genotype 1b), 38 nM; in the assay on Hepatitis C virus [6], 0.0623 nM; in the assay with Hepatitis C virus [7] (Hepatitis C virus, genotype 1b), 0.0084 nM.
With `COC(=O)N[C@H](C(=O)N1C[C@@H](N=[N+]=[N-])C[C@H]1c1ncc(-c2ccc(-c3ccc(-c4cnc([C@@H]5C[C@H](N=[N+]=[N-])CN5C(=O)[C@@H](NC(=O)OC)C(C)C)[nH]4)cc3)cc2)[nH]1)C(C)C`, the EC50 with Hepatitis C virus [1] is 0.023 nM.
On to `COC(=O)N[C@H](C(=O)N1C[C@H](N=[N+]=[N-])C[C@H]1c1ncc(-c2ccc(-c3ccc(-c4cnc([C@@H]5C[C@@H](N=[N+]=[N-])CN5C(=O)[C@@H](NC(=O)OC)C(C)C)[nH]4)cc3)cc2)[nH]1)C(C)C`, for which the EC50 with Hepatitis C virus [1] is 0.0184 nM.
For the compound `COC(=O)N[C@H](C(=O)N1CCC[C@H]1c1ncc(-c2ccc(N=[N+]=[N-])cc2)[nH]1)C(C)C`, in the assay on Hepatitis C virus [6], the EC50 amounted to 8 nM.
Regarding `COC(=O)N[C@H](C(=O)N1CCC[C@H]1c1ncc(-c2ccccc2)[nH]1)C(C)C`, the EC50 in the assay with Hepatitis C virus [1] was above 1000 nM.
Take `COC(=O)N[C@H](C(=O)N1CCC[C@H]1c1ncc(-c2ccc(Oc3ccc(-c4cnc([C@@H]5CCCN5C(=O)[C@@H](NC(=O)OC)C(C)C)[nH]4)cc3)cc2)[nH]1)C(C)C`: the EC50 in the assay on Hepatitis C virus [1] was 30 nM.
Take `COC(=O)N[C@H](C(=O)N1C[C@@H](n2cc(C(=O)OC)nn2)C[C@H]1c1ncc(-c2ccc(-c3ccc(-c4cnc([C@@H]5C[C@H](n6cc(C(=O)OC)nn6)CN5C(=O)[C@@H](NC(=O)OC)C(C)C)[nH]4)cc3)cc2)[nH]1)C(C)C`: the EC50 in the assay on Hepatitis C virus [1] was above 10 nM.
As to `COC(=O)N[C@H](C(=O)N1C[C@H](n2cc(C(=O)OC)nn2)C[C@H]1c1ncc(-c2ccc(-c3ccc(-c4cnc([C@@H]5C[C@@H](n6cc(C(=O)OC)nn6)CN5C(=O)[C@@H](NC(=O)OC)C(C)C)[nH]4)cc3)cc2)[nH]1)C(C)C`, the EC50 with Hepatitis C virus [1] stood at 0.0118 nM.
